pKi: −log10 of the molar value.
How the values were obtained:
[1] = target: Sigma non-opioid intracellular receptor 1 (Rattus norvegicus, UniProt Q9R0C9); assay: Displacement of [3H]-(+)-pentazocine from sigma1 receptor in rat liver membranes after 120 mins by liquid scintillation counting; format: cell membranes, Membrane
PANC-1 = assay: Cytotoxicity against human PANC1 cells at 50 uM after 48 hrs by MTT assay; format: functional
SH-SY5Y = assay: Cytotoxicity against human SH-SY5Y cells at 50 uM after 48 hrs by MTT assay; format: functional
Rattus norvegicus = species: Rattus norvegicus; assay: Selectivity index, ratio of Ki for sigma2 receptor in rat liver membranes to Ki for sigma1 receptor in rat liver membranes; format: cell membranes
[2] = target: T1, Sigma intracellular receptor 2 (Rattus norvegicus, UniProt Q5U3Y7); assay: Displacement of [3H]-DTG from sigma2 receptor in rat liver membranes after 120 mins by liquid scintillation counting; format: cell membranes, Membrane
T1 sequence (Q5U3Y7 whole entry): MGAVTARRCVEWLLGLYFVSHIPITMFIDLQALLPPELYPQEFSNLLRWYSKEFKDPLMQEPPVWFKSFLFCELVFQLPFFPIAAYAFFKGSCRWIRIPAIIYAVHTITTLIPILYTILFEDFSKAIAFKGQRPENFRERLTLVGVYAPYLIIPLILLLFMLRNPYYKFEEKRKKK

Sigma non-opioid intracellular receptor 1, sequence (Q9R0C9 whole entry): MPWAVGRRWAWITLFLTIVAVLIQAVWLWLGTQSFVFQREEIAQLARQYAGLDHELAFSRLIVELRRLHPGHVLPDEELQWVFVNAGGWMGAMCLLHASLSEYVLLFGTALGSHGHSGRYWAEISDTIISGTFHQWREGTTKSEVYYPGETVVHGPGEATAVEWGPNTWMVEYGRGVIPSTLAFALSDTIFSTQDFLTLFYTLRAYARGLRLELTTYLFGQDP

SMILES	pKi [1]	Activity (PANC-1)	Activity (SH-SY5Y)	Ratio Ki (Rattus norvegicus)	pKi [2]
CCCN(CC1CCN(Cc2ccccc2)CC1)C(C)=O	7.43				
CC(C)=CCN1CCC2(C)c3cc(O)ccc3CC1C2C (stereo unspecified) [PENTAZOCINE]		5%	5%		
CCCN(CCC)CCc1ccc(OC)c(OCCc2ccccc2)c1		92%	92%		
c1ccc(CCN2CCCCC2)cc1		21%	21%		
Fc1ccc(-n2cc(CCCCN3CCC4(CC3)OCc3ccccc34)c3ccccc32)cc1 [SIRAMESINE]		90%	90%		
Cc1ccccc1NC(=N)Nc1ccccc1C [DITOLYLGUANIDINE]		80%	80%		
CCN(CC1CCN(Cc2ccccc2)CC1)C(C)=O	7.01			4.3	6.37
O=C(CCCN1CCC(O)(c2ccc(Cl)cc2)CC1)c1ccc(F)cc1 [HALOPERIDOL]		66%	66%		
